Laboratory results: publication PMC6272192, “Synthesis and Biological Evaluation of N-Alkyl-3-(alkylamino)-pyrazine-2-carboxamides” (Molecules, 2015)
Values after ≈ are worked out from the molar mass of the structure shown. Read-outs that look alike come from different tables or passages of the source.

Key:
[1] = test system: photosystem 2 photosynthetic electron transport (PET) in spinach chloroplasts; design: method as in doi:10.3139/113.110079; details: literature surfactants; read-out: IC50 related to PET inhibition; cited from earlier work
M. tuberculosis H37Rv [2] = details: previously prepared 3-alkylaminopyrazine-2-carboxamides; cited from earlier work
[3] = determination of lipophilicity by HPLC (log k); details: HPLC capacity factor, C18 column, MeOH 70% / H2O 30%
Description: Instrumentation: Agilent Technologies 1200 SL liquid chromatograph with Diode-array Detector SL G1315C (Agilent Technologies Inc., Colorado Springs, CO, USA); pre-column ZORBAX XDB-C18 5 μm, 4 × 4 mm, Part No. 7995118-504 (Agilent Technologies Inc.) and column ZORBAX Eclipse XDB-C18 5 μm, 4.6 × 250 mm, Part No. 7995118-585 (Agilent Technologies Inc.). The separation process was controlled by Agilent ChemStation, version B.04.02 extended by spectral module (Agilent Technologies Inc.). Mobile phase consisted of MeOH (HPLC grade, 70%) and H2O (HPLC-Milli-Q Grade, 30%). Conditions: Flow rate 1.0 mL/min, sample injection volume 20 μL, column temperature 30 °C, detection wavelength 210 nm, monitor wavelength 270 nm. Retention times (tR) were measured in minutes. The dead time of the system (tD) was determined as the retention time of KI methanol solution. Capacity factors k for individual compounds were calculated according to the formula k = (tR − tD)/tD. Log k, calculated from the capacity factor k, is used as the lipophilicity index converted to log scale.

[4] = test system: photosystem 2 photosynthetic electron transport (PET) in spinach chloroplasts; assay: inhibition of photosynthetic electron transport (PET) in spinach chloroplasts (Hill reaction, DCPIP); format: biochemical, Spinacia oleracea L.; details: for PET-inhibiting activity (in words) / IC50: spinach chloroplasts
Procedure: Chloroplasts were prepared from spinach (Spinacia oleracea L.) according to Masarovicova and Kralova. The inhibition of photosynthetic electron transport (PET) in spinach chloroplasts was determined spectrophotometrically (Genesys 6, Thermo Electron Scientific Instruments, Madison, WI, USA), using an artificial electron acceptor 2,6-dichlorophenol-indophenol (DCPIP) according to Kralova et al., and the rate of photosynthetic electron transport (PET) was monitored as a photoreduction of DCPIP. The measurements were carried out in phosphate buffer (0.02 mol/L, pH 7.2) containing sucrose (0.4 mol/L), MgCl2 (0.005 mol/L) and NaCl (0.015 mol/L). The chlorophyll content was 30 mg/L in these experiments and the samples were irradiated (~100 W/m^2 with 10 cm distance) with a halogen lamp (250 W) using a 4 cm water filter to prevent warming of the samples (suspension temperature 22 °C). The studied compounds were dissolved in DMSO due to their limited water solubility. […] The inhibitory efficiency of the studied compounds was expressed by IC50 values, i.e., by molar concentration of the compounds causing 50% PET inhibition relative to the untreated control.

M. tuberculosis H37Rv [5] = assay: in vitro antimycobacterial activity, microdilution panel method; format: cell-based, Mycobacterium tuberculosis; details: for MIC: Mycobacterium tuberculosis
[6] = test system: Trichophyton mentagrophytes; assay: in vitro antifungal activity, microdilution broth method; format: cell-based; details: for MIC: Trichophyton mentagrophytes
Procedure: Antifungal evaluation was performed using microdilution broth method against 8 fungal strains (Candida albicans ATCC 44859, C. tropicalis 156, C. krusei E28, C. glabrata 20/I, Trichosporon asahii 1188, Aspergillus fumigates 231, Absidia corymbifera 272 and Trichophyton mentagrophytes 445). Compounds were dissolved in DMSO and diluted in a twofold manner with RPMI 1640 medium with glutamine buffered to pH 7.0 (3-morpholinopropane-1-sulfonic acid). […] Static incubation was performed in the dark and humid, at 35 °C for 24 and 48 h (respectively 72 and 120 h for Trichophyton mentagrophytes). The MIC was defined as 80% inhibition of control (50% IC for filament fungi). Drug-free controls were included. The standards were amphotericin B, voriconazole, nystatin and fluconazole.

[7] = test system: Staphylococcus epidermidis; assay: in vitro antibacterial activity, microdilution broth method; format: cell-based
Procedure: Microdilution broth method. Antibacterial evaluation was performed against bacterial strains from Czech Collection of Microorganisms (Brno, Czech Republic) (Staphylococcus aureus CCM 4516/08, Escherichia coli CCM 4517, Pseudomonas aeruginosa CCM 1961) or clinical isolates from Department of Clinical Microbiology, University Hospital and Faculty of Medicine in Hradec Králové, Charles University in Prague, Czech Republic (Staphylococcus aureus H 5996/08-methicilin resistant (MRSA), Staphylococcus epidermidis H 6966/08, Enterococcus sp. J 14365/08, Klebsiella pneumoniae D 11750/08, Klebsiella pneumoniae J 14368/08-ESBL positive). All strains were subcultured on Mueller-Hinton agar (MHA) (Difco/Becton Dickinson, Detroit, MI, USA) at 35 °C and maintained on the same medium at 4 °C. The compounds were dissolved in DMSO, and the antibacterial activity was determined in Mueller-Hinton liquid broth (Difco/Becton Dickinson), buffered to pH 7.0. Controls consisted of medium and DMSO alone. […] The standards were neomycin, bacitracin, penicillin G, ciprofloxacin and phenoxymethylpenicilin.

Vero cells = assay: in vitro cytotoxicity assay (MCC); format: cell-based, African Green Monkey; details: highest tested concentration 100 µmol/L
[8] = 336 h, Middlebrook 7H9, Alamar Blue after 14 days, read-out: MIC M. tuberculosis
[9] = DCPIP photoreduction, read-out: IC50 (PET-inhibiting activity)
[10] = Middlebrook 7H9, Alamar Blue after 14 days

CCCCCCCCC[N+](C)(C)CCNC(=O)CCC(=O)NCC[N+](C)(C)CCCCCCCCC [3,8-diaza-4,7-dioxodecane-1,10-diylbis(nonyldimethyl)ammonium bromide]
IC50 [1]: 1740 µM

CCCCCCCNc1nccnc1C(N)=O [3-heptyamino-]
MIC (M. tuberculosis H37Rv [2]): 50 µg/mL (≈ 212 µM)

CCCCCCNc1nccnc1C(N)=O [3-hexylamino-]
MIC (M. tuberculosis H37Rv [2]): 50 µg/mL (≈ 225 µM)

CCCCCCCCNc1nccnc1C(N)=O [3-octylaminopyrazine-2-carboxamide]
MIC (M. tuberculosis H37Rv [2]): 50 µg/mL (≈ 200 µM)

CNC(=O)c1nccnc1Cl [Compound 1, 3-Chloro-N-methylpyrazine-2-carboxamide]
log k [3]: −0.747
PET-inhibiting activity (in words) [4]: inactive
MIC (M. tuberculosis H37Rv [5]; [8]): > 100 µg/mL

CCNC(=O)c1nccnc1Cl [Compound 2, 3-Chloro-N-ethylpyrazine-2-carboxamide]
log k [3]: −0.591
PET-inhibiting activity (in words) [4]: inactive
MIC (M. tuberculosis H37Rv [5]; [8]): > 100 µg/mL

CCCNC(=O)c1nccnc1Cl [Compound 3, 3-Chloro-N-propylpyrazine-2-carboxamide]
log k [3]: −0.414
PET-inhibiting activity (in words) [4]: inactive
MIC (M. tuberculosis H37Rv [5]; [8]): > 100 µg/mL

CCCCNC(=O)c1nccnc1Cl [Compound 4, N-Butyl-3-chloropyrazine-2-carboxamide]
log k [3]: −0.209
IC50 [4, 9]: 4010 µM
MIC (M. tuberculosis H37Rv [5]; [8]): > 100 µg/mL

CCCCCNC(=O)c1nccnc1Cl [Compound 5, 3-Chloro-N-pentylpyrazine-2-carboxamide]
log k [3]: 0.012
IC50 [4, 9]: 1390 µM
MIC (M. tuberculosis H37Rv [5]; [8]): > 100 µg/mL

CCCCCCNC(=O)c1nccnc1Cl [Compound 6, 3-Chloro-N-hexylpyrazine-2-carboxamide]
log k [3]: 0.239
MIC [6]: 250 µM (≈ 60.4 µg/mL)
IC50 [4, 9]: 1070 µM
MIC (M. tuberculosis H37Rv [5]; [8]): 100 µg/mL

CCCCCCCNC(=O)c1nccnc1Cl [Compound 7, 3-Chloro-N-heptylpyrazine-2-carboxamide]
log k [3]: 0.470
MIC [6]: 125 µM (≈ 32 µg/mL)
IC50 [4, 9]: 256 µM
MIC (M. tuberculosis H37Rv [5]; [8]): 100 µg/mL

CCCCCCCCNC(=O)c1nccnc1Cl [Compound 8, 3-Chloro-N-octylpyrazine-2-carboxamide]
log k [3]: 0.702
MIC Trichophyton mentagrophytes [6]: 62.5 µM (≈ 16.9 µg/mL)
MIC [6]: 62.5 µM (≈ 16.9 µg/mL)
IC50 [4, 9]: 55 µM
MIC (M. tuberculosis H37Rv [5]; [8]): 50 µg/mL

CNC(=O)c1nccnc1NC [Compound 9, N-Methyl-3-(methylamino)pyrazine-2-carboxamide]
log k [3]: −0.279
IC50 [4, 9]: 5650 µM
MIC (M. tuberculosis H37Rv [5]; [8]): > 100 µg/mL

CCNc1nccnc1C(=O)NC [Compound 10, 3-(Ethylamino)-N-methylpyrazine-2-carboxamide]
log k [3]: −0.052
MIC (M. tuberculosis H37Rv [5]; [8]): > 100 µg/mL

CCCNc1nccnc1C(=O)NC [Compound 11, N-Methyl-3-(propylamino)pyrazine-2-carboxamide]
log k [3]: 0.166
MIC (M. tuberculosis H37Rv [5]; [8]): > 100 µg/mL

CCCCNc1nccnc1C(=O)NC [Compound 12, 3-(Butylamino)-N-methylpyrazine-2-carboxamide]
log k [3]: 0.401
IC50 [4, 9]: 523 µM
MIC (M. tuberculosis H37Rv [5]; [8]): 100 µg/mL

CCCCCNc1nccnc1C(=O)NC [Compound 13, N-Methyl-3-(pentylamino)pyrazine-2-carboxamide]
log k [3]: 0.638
MIC [6]: 250 µM (≈ 55.6 µg/mL)
IC50 [4, 9]: 544 µM
MIC (M. tuberculosis H37Rv [5]; [8]): 50 µg/mL

CCCCCCNc1nccnc1C(=O)NC [Compound 14, 3-(Hexylamino)-N-methylpyrazine-2-carboxamide]
log k [3]: 0.876
MIC [6]: 250 µM (≈ 59.1 µg/mL)
IC50 [4, 9]: 125 µM
MIC M. tuberculosis (M. tuberculosis H37Rv [5]; [10]): 25 µg/mL (≈ 106 µM)
MIC (M. tuberculosis H37Rv [5]; [8]): 25 µg/mL

CCCCCCCNc1nccnc1C(=O)NC [Compound 15, 3-(Heptylamino)-N-methylpyrazine-2-carboxamide]
log k [3]: 1.118
MIC [6]: 125 µM (≈ 31.3 µg/mL)
IC50 [4, 9]: 65 µM
MIC [7]: 250 µM (≈ 62.6 µg/mL)
MIC (M. tuberculosis H37Rv [5]; [8]): 25 µg/mL

CCNC(=O)c1nccnc1NC [Compound 17, N-Ethyl-3-(methylamino)pyrazine-2-carboxamide]
log k [3]: −0.063
PET-inhibiting activity (in words) [4]: not active
MIC (M. tuberculosis H37Rv [5]; [8]): > 100 µg/mL

CCNC(=O)c1nccnc1NCC [Compound 18, N-Ethyl-3-(ethylamino)pyrazine-2-carboxamide]
log k [3]: 0.163
PET-inhibiting activity (in words) [4]: not active
MIC (M. tuberculosis H37Rv [5]; [8]): > 100 µg/mL

CCCNc1nccnc1C(=O)NCC [Compound 19, N-Ethyl-3-(propylamino)pyrazine-2-carboxamide]
log k [3]: 0.382
IC50 (PET) fold higher than that of compound 12 ([4]; ratio to IC50 of 12): 3.9 fold
IC50 [4, 9]: 2050 µM
MIC [7]: 250 µM (≈ 52.1 µg/mL)
MIC (M. tuberculosis H37Rv [5]; [8]): > 100 µg/mL

CCCCNc1nccnc1C(=O)NCC [Compound 20, 3-(Butylamino)-N-ethylpyrazine-2-carboxamide]
log k [3]: 0.617
IC50 [4, 9]: 1090 µM
MIC (M. tuberculosis H37Rv [5]; [8]): > 100 µg/mL

CCCCCNc1nccnc1C(=O)NCC [Compound 21, N-Ethyl-3-(pentylamino)pyrazine-2-carboxamide]
log k [3]: 0.855
MIC [6]: 250 µM (≈ 59.1 µg/mL)
IC50 (PET) fold higher than that of compound 14 ([4]; ratio to IC50 of 14): 2.4 fold
IC50 [4, 9]: 301 µM
MIC M. tuberculosis (M. tuberculosis H37Rv [5]; [10]): 50 µg/mL (≈ 212 µM)
MIC (M. tuberculosis H37Rv [5]; [8]): 50 µg/mL

CCCCCCNc1nccnc1C(=O)NCC [Compound 22, N-Ethyl-3-(hexylamino)pyrazine-2-carboxamide]
log k [3]: 1.094
MIC [6]: 125 µM (≈ 31.3 µg/mL)
IC50 [4, 9]: 78 µM
MIC (M. tuberculosis H37Rv [5]; [8]): 50 µg/mL

CCCCCCCNc1nccnc1C(=O)NCC [Compound 23, N-Ethyl-3-(heptylamino)pyrazine-2-carboxamide]
log k [3]: 1.337
MIC [6]: 125 µM (≈ 33 µg/mL)
IC50 [4, 9]: 48 µM
MIC [7]: 250 µM (≈ 66.1 µg/mL)
MIC (M. tuberculosis H37Rv [5]; [8]): 50 µg/mL

CCCNC(=O)c1nccnc1NCCC [Compound 25, N-Propyl-3-(propylamino)pyrazine-2-carboxamide]
log k [3]: 0.600
IC50 [4, 9]: 1300 µM
MIC (M. tuberculosis H37Rv [5]; [8]): > 100 µg/mL

CCCCNC(=O)c1nccnc1NCCCC [Compound 26, N-Butyl-3-(butylamino)pyrazine-2-carboxamide]
log k [3]: 1.077
IC50 [4, 9]: 202 µM
MIC (M. tuberculosis H37Rv [5]; [8]): 50 µg/mL

CCCCCCNC(=O)c1nccnc1NCCCCCC [Compound 28, N-Hexyl-3-(hexylamino)pyrazine-2-carboxamide]
log k [3]: 2.041
IC50 [4, 9]: 272 µM
minimum compound concentration (MCC) causing microscopically detectable alteration of normal cell morphology (Vero cells): > 4 µmol/L
MIC (M. tuberculosis H37Rv [5]; [8]): > 100 µg/mL

CCCCCCCNC(=O)c1nccnc1NCCCCCCC [Compound 29, N-Heptyl-3-(heptylamino)pyrazine-2-carboxamide]
log k [3]: 2.503
IC50 [4, 9]: 1120 µM
MIC (M. tuberculosis H37Rv [5]; [8]): > 100 µg/mL

CCCCCCCCNC(=O)c1nccnc1NCCCCCCCC [Compound 30, N-Octyl-3-(octylamino)pyrazine-2-carboxamide]
log k [3]: 2.981
IC50 [4, 9]: 752 µM
minimum compound concentration (MCC) causing microscopically detectable alteration of normal cell morphology (Vero cells): 100 µmol/L
MIC (M. tuberculosis H37Rv [5]; [8]): > 100 µg/mL

CN(C)C(=O)Nc1ccc(Cl)c(Cl)c1 [DCMU, 3-(3,4-dichlorophenyl)-1,1-dimethylurea, reference compound]
IC50 [4, 9]: 2 µM
IC50 ([4]; read-out: IC50 (PET inhibition, Hill reaction)): ~1.9 µM

NNC(=O)c1ccncc1 [INH, Isoniazid, reference compound]
MIC M. tuberculosis (M. tuberculosis H37Rv [5]; [10]): 0.1 to 0.39 µg/mL
MIC (M. tuberculosis H37Rv [5]; [8]): 0.1 to 0.39 µg/mL
MIC (M. tuberculosis H37Rv [5]; conversion of the μg/mL value, read-out: MIC M. tuberculosis in molar units): 0.7 to 2.9 µM

CN(C)CCNC(=O)C(=O)NCCN(C)C [N,N'-bis(2-dimethylaminoethyl)ethanediamide]
IC50 [1]: 4000 µM
